Organism: Rattus norvegicus
Assay: Open TG-GATES - Regimen: Single
Assay type: toxicity, organism-based, Sprague-Dawley
Parameters: regimen Single, gender Male, age 6 weeks
Details: in vivo, po, 50 mg/kg, route gavage, dose level High; for ALT / AST / BUN / CRE / Ca / Cl / DBIL / GLC / IP / K / LDH / Na / PL / RALB / TBIL / TC / TG / TP / gamma-GTP / A/G / ALP: tissue Plasma; for APTT / Bas / Eos / Fbg / Hb / Ht / Lym / MCH / MCHC / MCV / Mono / Neu / PT / Plat / RBC / Ret / WBC: tissue Blood; for KIDNEY_L / KIDNEY_R / KIDNEY_TOTAL: tissue Kidney; for LIVER: tissue Liver

Q: Which results are given for `COc1ccc2c(c1)c(CC(=O)O)c(C)n2C(=O)c1ccc(Cl)cc1` [INDOMETHACIN]?
A: ALT (3 h): 41.2 IU/L; AST (3 h): 75 IU/L; BUN (3 h): 11.4 mg/dL; CRE (3 h): 0.4 mg/dL; Ca (3 h): 10.4 mg/dL; Cl (3 h): 102 meq/L; DBIL (3 h): 0.072 mg/dL; GLC (3 h): 217.4 mg/dL; IP (3 h): 10.5 mg/dL; K (3 h): 3.9 meq/L; LDH (3 h): 221 IU/L; Na (3 h): 140.4 meq/L; PL (3 h): 125.4 mg/dL; RALB (3 h): 3.3 g/dL; TBIL (3 h): 0.1 mg/dL; TC (3 h): 69.6 mg/dL; TG (3 h): 43.4 mg/dL; TP (3 h): 5.4 g/dL; gamma-GTP (3 h): 1 IU/L; TERMINAL_BW (6 h): 223.2 g; APTT (6 h): 18.3 s; Bas (6 h): 0%; Eos (6 h): 0.4%; Fbg (6 h): 214.4 mg/dL; Hb (6 h): 13.7 g/dL; Ht (6 h): 37.2%; Lym (6 h): 64%; MCH (6 h): 22.4 pg; MCHC (6 h): 36.9%; MCV (6 h): 60.8 fL; Mono (6 h): 4.6%; Neu (6 h): 28.6%; PT (6 h): 12.3 s; Plat (6 h): 113.8 x10_4/uL; RBC (6 h): 612.2 x10_4/ul; Ret (6 h): 8%; WBC (6 h): 123.9 x10_2/uL; KIDNEY_L (6 h): 0.9 g; KIDNEY_R (6 h): 0.9 g; KIDNEY_TOTAL (6 h): 1.9 g; LIVER (6 h): 9.5 g; A/G (6 h): 1.7; ALP (6 h): 705.2 IU/L; ALT (6 h): 35.4 IU/L; AST (6 h): 73 IU/L; BUN (6 h): 12.8 mg/dL; CRE (6 h): 0.4 mg/dL; Ca (6 h): 10.6 mg/dL; Cl (6 h): 102.6 meq/L; DBIL (6 h): 0.08 mg/dL; GLC (6 h): 194.2 mg/dL; IP (6 h): 9.4 mg/dL; K (6 h): 4.1 meq/L; LDH (6 h): 211.2 IU/L; Na (6 h): 140.4 meq/L; PL (6 h): 120.6 mg/dL; RALB (6 h): 3.3 g/dL; TBIL (6 h): 0.1 mg/dL; TC (6 h): 64.8 mg/dL; TG (6 h): 60.2 mg/dL; TP (6 h): 5.3 g/dL; gamma-GTP (6 h): 1 IU/L; TERMINAL_BW (9 h): 222.5 g; APTT (9 h): 19 s; Bas (9 h): 0%; Eos (9 h): 0.2%; Fbg (9 h): 215.2 mg/dL; Hb (9 h): 13.7 g/dL; Ht (9 h): 36.9%; Lym (9 h): 68.4%; MCH (9 h): 22.5 pg; MCHC (9 h): 37.2%; MCV (9 h): 60.4 fL; Mono (9 h): 3.8%; Neu (9 h): 24.8%; PT (9 h): 12.2 s; Plat (9 h): 113.6 x10_4/uL; RBC (9 h): 610.6 x10_4/ul; Ret (9 h): 8%; WBC (9 h): 107.9 x10_2/uL; KIDNEY_L (9 h): 1 g; KIDNEY_R (9 h): 1 g; KIDNEY_TOTAL (9 h): 1.9 g; LIVER (9 h): 9 g; A/G (9 h): 1.7; ALP (9 h): 738.8 IU/L; ALT (9 h): 30.4 IU/L; AST (9 h): 68.4 IU/L; BUN (9 h): 12.8 mg/dL; CRE (9 h): 0.4 mg/dL; Ca (9 h): 10.3 mg/dL; Cl (9 h): 103.8 meq/L; DBIL (9 h): 0.072 mg/dL; GLC (9 h): 200.8 mg/dL; IP (9 h): 9.9 mg/dL; K (9 h): 4.1 meq/L; LDH (9 h): 199 IU/L; Na (9 h): 140.6 meq/L; PL (9 h): 126.6 mg/dL; RALB (9 h): 3.3 g/dL; TBIL (9 h): 0.1 mg/dL; TC (9 h): 69.2 mg/dL; TG (9 h): 40.8 mg/dL; TP (9 h): 5.2 g/dL; gamma-GTP (9 h): 1.2 IU/L; TERMINAL_BW (24 h): 230 g; APTT (24 h): 21.7 s; Bas (24 h): 0%; Eos (24 h): 0%; Fbg (24 h): 260.8 mg/dL; Hb (24 h): 9.5 g/dL; Ht (24 h): 27%; Lym (24 h): 61.4%; MCH (24 h): 21.3 pg; MCHC (24 h): 35.1%; MCV (24 h): 60.6 fL; Mono (24 h): 2.8%; Neu (24 h): 33.4%; PT (24 h): 12.7 s; Plat (24 h): 67.9 x10_4/uL; RBC (24 h): 448.8 x10_4/ul; Ret (24 h): 8.4%; WBC (24 h): 122.6 x10_2/uL; KIDNEY_L (24 h): 1 g; KIDNEY_R (24 h): 1 g; KIDNEY_TOTAL (24 h): 2 g; LIVER (24 h): 10.4 g; A/G (24 h): 1.2; ALP (24 h): 484.2 IU/L; ALT (24 h): 25.2 IU/L; AST (24 h): 48 IU/L; BUN (24 h): 21.6 mg/dL; CRE (24 h): 0.4 mg/dL; Ca (24 h): 9.4 mg/dL; Cl (24 h): 106.2 meq/L; DBIL (24 h): 0.056 mg/dL; GLC (24 h): 167.8 mg/dL; IP (24 h): 8.6 mg/dL; K (24 h): 4.2 meq/L; LDH (24 h): 145.2 IU/L; Na (24 h): 141.2 meq/L; PL (24 h): 114 mg/dL; RALB (24 h): 1.9 g/dL; TBIL (24 h): 0.096 mg/dL; TC (24 h): 60.4 mg/dL; TG (24 h): 122.8 mg/dL; TP (24 h): 3.5 g/dL; gamma-GTP (24 h): 1 IU/L

From ChEMBL document CHEMBL3885861, “Open TG-GATES”
